In patent US9586936B2, “Heteroarylamine derivatives as protein kinase inhibitors” (KOREA INSTITUTE OF SCIENCE AND TECHNOLOGY, priority 2014, dated 2017):

Legend:
microsomal stability = type: in vitro ADME, Dog; conditions: for microsomal stability (% at time): Dog
Experimental: The microsomal stability of N-(2,6-dichloro-3,5-dimethoxyphenyl)-1-(6-((4-(4-ethylpiperazin-1-yl)phenyl)amino)pyrimidin-4-yl)-1H-benz[d]imidazol-2-amine synthesized in Example 1, as a representative compound of the present invention, was evaluated.

CYP2C9 = CYP2C9 (Homo sapiens, UniProt P11712); assay: inhibition activity against CYPs (cytochromes P450); type: in vitro ADME
CYP2C9, sequence (P11712 whole entry): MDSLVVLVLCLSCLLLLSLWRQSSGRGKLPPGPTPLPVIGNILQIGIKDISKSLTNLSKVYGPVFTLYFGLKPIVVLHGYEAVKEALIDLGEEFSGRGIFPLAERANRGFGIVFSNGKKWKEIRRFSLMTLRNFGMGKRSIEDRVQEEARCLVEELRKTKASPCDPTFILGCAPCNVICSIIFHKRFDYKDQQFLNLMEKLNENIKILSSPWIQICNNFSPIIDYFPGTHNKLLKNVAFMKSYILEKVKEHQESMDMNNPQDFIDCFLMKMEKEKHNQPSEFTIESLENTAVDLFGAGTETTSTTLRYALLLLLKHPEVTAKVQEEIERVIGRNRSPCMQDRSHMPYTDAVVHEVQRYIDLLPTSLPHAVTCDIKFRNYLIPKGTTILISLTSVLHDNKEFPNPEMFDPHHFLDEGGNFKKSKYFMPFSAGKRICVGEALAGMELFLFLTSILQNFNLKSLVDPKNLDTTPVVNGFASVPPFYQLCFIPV
Experimental: (§1) The inhibition activity (inhibition rate, %) of N-(2,6-dichloro-3,5-dimethoxyphenyl)-1-(6-((4-(4-ethylpiperazin-1-yl)phenyl)amino)pyrimidin-4-yl)-1H-benz[d]imidazol-2-amine synthesized in Example 1, as a representative compound of the present invention, against CYPs (cytochromes P450) was measured in order to investigate the risk of drug side effects.

CYP3A4 = CYP3A4 (Homo sapiens, UniProt P08684); assay: as above; type: in vitro ADME
CYP3A4, sequence (P08684 whole entry): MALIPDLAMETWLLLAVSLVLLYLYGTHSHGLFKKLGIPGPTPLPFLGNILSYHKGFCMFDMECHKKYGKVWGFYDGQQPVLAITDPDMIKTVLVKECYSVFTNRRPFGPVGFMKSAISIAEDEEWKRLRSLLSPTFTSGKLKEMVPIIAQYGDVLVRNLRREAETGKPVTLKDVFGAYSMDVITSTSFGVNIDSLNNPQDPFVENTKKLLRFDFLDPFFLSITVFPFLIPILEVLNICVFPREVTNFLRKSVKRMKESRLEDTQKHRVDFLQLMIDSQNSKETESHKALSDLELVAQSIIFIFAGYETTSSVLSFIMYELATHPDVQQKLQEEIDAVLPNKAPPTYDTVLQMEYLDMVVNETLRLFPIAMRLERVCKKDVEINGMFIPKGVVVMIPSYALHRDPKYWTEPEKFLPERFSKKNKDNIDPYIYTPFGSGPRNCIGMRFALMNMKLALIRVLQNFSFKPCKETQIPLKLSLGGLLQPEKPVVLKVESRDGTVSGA
Experimental: as §1

CYP2D6 = CYP2D6 (Homo sapiens, UniProt P10635); assay: as above; type: in vitro ADME
CYP2D6, sequence (P10635 whole entry): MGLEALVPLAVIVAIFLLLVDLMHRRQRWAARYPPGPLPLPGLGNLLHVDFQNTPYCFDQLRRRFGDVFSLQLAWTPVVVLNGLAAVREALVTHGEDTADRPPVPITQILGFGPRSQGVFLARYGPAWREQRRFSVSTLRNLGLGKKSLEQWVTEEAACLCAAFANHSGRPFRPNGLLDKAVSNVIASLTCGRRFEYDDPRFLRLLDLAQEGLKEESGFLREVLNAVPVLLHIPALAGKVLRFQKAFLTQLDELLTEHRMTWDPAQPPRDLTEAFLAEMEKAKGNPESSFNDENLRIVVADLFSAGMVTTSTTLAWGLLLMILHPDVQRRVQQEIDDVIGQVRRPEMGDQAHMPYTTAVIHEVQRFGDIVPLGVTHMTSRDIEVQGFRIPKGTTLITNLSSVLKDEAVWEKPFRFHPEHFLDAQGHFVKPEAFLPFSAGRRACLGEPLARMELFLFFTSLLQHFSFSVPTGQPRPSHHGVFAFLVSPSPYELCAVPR
Experimental: as §1

CYP1A2 = target: T1, CYP1A2 (Homo sapiens, UniProt P05177); assay: as above; type: in vitro ADME
T1 sequence (P05177 1-516): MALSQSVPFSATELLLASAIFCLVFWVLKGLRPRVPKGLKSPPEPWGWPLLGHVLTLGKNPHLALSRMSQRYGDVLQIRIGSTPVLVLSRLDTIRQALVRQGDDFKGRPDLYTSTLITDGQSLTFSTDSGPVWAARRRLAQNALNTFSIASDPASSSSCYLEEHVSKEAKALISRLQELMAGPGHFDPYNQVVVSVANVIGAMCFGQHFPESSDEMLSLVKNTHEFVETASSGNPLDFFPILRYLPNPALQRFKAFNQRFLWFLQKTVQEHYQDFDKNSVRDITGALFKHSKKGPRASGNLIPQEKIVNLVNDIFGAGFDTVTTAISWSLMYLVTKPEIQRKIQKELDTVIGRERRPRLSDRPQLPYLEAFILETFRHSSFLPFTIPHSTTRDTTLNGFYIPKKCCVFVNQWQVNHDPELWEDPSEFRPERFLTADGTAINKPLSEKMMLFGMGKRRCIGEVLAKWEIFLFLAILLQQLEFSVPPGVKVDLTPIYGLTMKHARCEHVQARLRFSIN
Experimental: as §1

CYP2C19 = CYP2C19 (Homo sapiens, UniProt P33261); assay: as above; type: in vitro ADME
CYP2C19, sequence (P33261 whole entry): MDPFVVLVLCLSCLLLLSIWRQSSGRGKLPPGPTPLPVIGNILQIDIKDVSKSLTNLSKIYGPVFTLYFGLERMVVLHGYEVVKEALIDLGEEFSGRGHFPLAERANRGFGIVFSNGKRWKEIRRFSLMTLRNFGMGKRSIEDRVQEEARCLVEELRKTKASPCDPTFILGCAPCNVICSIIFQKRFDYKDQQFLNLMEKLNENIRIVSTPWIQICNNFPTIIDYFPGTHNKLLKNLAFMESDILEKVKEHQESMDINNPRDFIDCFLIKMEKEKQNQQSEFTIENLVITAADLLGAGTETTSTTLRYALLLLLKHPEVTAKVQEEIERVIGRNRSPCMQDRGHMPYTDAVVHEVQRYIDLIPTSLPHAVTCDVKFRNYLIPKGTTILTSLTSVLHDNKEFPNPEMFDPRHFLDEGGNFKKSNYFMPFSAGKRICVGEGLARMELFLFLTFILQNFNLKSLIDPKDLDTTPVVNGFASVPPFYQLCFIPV
Experimental: as §1

[1] = in-vivo PK profile, mouse PK; conditions: ICR mice
Source text: The in-vivo PK profile (mouse PK/ICR mice and rat PK/Sprague-Dawley rat) of N-(2,6-dichloro-3,5-dimethoxyphenyl)-1-(6-((4-(4-ethylpiperazin-1-yl)phenyl)amino)pyrimidin-4-yl)-1H-benz[d]imidazol-2-amine synthesized in Example 1 is as follows.

[2] = tested on: bladder cancer cell line RT112; assay: inhibition of proliferation of cancer cells; type: cell-based; conditions: Homo sapiens, RT-112, read-out: Ability of inhibiting proliferation of RT112 (GI50)
Experimental: The ability of the compound of the present invention of inhibiting the proliferation of the bladder cancer cell line RT112 was determined as the GI50 value.

TIE2 = TIE2 (Homo sapiens, UniProt Q02763); assay: kinase inhibition activity, full kinase panel; type: biochemical; conditions: 1 μM of the compound; read-out: kinase activity inhibited (% inhibition)
TIE2, sequence (Q02763 23-1124): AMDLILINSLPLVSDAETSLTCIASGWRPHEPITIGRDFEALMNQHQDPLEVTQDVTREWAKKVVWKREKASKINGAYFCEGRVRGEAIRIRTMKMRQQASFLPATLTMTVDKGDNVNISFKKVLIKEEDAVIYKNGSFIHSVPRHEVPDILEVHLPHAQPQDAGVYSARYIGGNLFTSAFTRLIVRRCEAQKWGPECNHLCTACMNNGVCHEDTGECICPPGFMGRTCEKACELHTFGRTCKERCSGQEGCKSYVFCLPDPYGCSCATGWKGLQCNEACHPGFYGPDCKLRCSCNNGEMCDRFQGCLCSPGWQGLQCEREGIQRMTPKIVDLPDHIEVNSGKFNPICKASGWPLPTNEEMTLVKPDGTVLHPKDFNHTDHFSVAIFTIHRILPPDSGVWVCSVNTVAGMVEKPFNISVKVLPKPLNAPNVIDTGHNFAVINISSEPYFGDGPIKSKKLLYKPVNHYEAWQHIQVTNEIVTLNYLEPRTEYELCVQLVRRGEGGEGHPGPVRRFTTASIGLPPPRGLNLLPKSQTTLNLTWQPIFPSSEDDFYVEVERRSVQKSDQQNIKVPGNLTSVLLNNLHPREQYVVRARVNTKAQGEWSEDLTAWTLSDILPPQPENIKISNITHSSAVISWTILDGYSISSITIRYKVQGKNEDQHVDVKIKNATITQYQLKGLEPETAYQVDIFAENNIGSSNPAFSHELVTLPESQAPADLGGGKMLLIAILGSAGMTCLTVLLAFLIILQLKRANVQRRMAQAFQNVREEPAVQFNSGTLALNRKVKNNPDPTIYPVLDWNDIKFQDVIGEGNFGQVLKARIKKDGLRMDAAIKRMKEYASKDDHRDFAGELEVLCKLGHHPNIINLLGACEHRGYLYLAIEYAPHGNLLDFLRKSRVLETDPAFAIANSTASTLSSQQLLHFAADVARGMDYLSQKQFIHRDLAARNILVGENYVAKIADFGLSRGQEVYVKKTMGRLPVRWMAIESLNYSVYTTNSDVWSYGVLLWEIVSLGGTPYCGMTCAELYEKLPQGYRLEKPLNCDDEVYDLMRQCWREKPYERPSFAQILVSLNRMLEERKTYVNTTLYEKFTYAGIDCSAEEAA
Experimental: (§2) In order to measure the inhibition activity (% inhibition) of the compound of the present invention against protein kinases, a biochemical assay was conducted using a full kinase panel consisting of 340 kinases. As a representative compound of the present invention, N-(2,6-dichloro-3,5-dimethoxyphenyl)-1-(6-((4-(4-ethylpiperazin-1-yl)phenyl)amino)pyrimidin-4-yl)-1H-benz[d]imidazol-2-amine synthesized in Example 1 was used.
(§3) The kinases whose activity is inhibited by 50% or more when treated with 1 μM of the compound of Example 1 are listed in Table 1.

c-Src = c-Src (Homo sapiens, UniProt P12931); assay: kinase inhibition activity, full kinase panel; type: biochemical; conditions: 1 μM of the compound; read-out: kinase activity inhibited (% inhibition)
c-Src, sequence (P12931 whole entry): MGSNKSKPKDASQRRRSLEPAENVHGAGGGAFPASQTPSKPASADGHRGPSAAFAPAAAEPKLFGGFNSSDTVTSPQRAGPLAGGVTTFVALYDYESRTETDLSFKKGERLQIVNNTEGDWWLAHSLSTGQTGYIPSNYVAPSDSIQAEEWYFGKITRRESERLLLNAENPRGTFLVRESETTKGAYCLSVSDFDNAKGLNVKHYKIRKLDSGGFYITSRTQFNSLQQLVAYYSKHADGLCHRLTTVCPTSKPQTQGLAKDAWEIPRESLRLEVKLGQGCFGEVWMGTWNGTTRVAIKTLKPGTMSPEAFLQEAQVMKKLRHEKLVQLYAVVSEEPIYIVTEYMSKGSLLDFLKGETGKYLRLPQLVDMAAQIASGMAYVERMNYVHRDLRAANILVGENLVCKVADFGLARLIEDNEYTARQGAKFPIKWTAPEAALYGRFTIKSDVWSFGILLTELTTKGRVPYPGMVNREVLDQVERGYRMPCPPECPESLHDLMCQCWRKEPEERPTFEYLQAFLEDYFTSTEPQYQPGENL
Experimental: as §2, §3

MEKK3 = MEKK3 (Homo sapiens, UniProt Q99759); assay: kinase inhibition activity, full kinase panel; type: biochemical; conditions: 1 μM of the compound; read-out: kinase activity inhibited (% inhibition)
MEKK3, sequence (Q99759 whole entry): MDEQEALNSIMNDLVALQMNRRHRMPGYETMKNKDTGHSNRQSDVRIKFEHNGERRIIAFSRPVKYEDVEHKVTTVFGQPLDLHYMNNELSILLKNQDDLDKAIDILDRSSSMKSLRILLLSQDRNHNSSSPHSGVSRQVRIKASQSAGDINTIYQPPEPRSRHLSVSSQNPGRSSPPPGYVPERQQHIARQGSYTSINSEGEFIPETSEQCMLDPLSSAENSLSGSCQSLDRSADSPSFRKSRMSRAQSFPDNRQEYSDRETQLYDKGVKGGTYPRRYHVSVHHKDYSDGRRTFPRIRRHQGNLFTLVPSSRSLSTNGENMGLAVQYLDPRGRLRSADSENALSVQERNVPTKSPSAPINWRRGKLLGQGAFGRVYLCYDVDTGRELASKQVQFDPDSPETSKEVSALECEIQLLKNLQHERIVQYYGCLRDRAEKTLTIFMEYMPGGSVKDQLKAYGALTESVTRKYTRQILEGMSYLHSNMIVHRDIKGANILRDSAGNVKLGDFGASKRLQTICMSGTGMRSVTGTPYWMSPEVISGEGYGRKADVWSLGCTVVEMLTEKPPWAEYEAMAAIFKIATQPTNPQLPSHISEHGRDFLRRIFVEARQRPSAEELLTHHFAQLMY
Experimental: as §2, §3

[3] = from 0.1-50 μM, unit from the table's concentration head, read-out: Expected IC50

- microsomal stability (% at time) (microsomal stability; 0 min): 100.00%
- microsomal stability (% at time) (microsomal stability; 5 min): 77.02%
- microsomal stability (% at time) (microsomal stability; 10 min): 57.41%
- microsomal stability (% at time) (microsomal stability; 15 min): 44.70%
- microsomal stability (% at time) (microsomal stability; 30 min): 21.03%
- microsomal stability (% at time) (microsomal stability; 45 min): 8.23%
- microsomal stability (% at time) (microsomal stability; 60 min): 5.02%
- half-life (microsomal stability; microsomes, Dog microsomal stability): 0.225 h
- IC50 (CYP2C9; [3]): 44.8 µM
- inhibition at 0.1 µM (CYP2C9; human, concentration 0.1 μM): 10.3%
- inhibition at 0.5 µM (CYP2C9; human, concentration 0.5 μM): 8.79%
- inhibition at 5 µM (CYP2C9; human, concentration 5 μM): 24.6%
- inhibition at 10 µM (CYP2C9; human, concentration 10 μM): 30%
- inhibition at 25 µM (CYP2C9; human, concentration 25 μM): 52.4%
- inhibition at 50 µM (CYP2C9; human, concentration 50 μM): 53.4%
- inhibition activity against CYP, statement in words (CYP2C9; summary of Table 5): no inhibition activity
- inhibition at 10 µM (CYP3A4; concentration 10 μM): 31.8%
- IC50 (CYP3A4; [3]): 32.4 µM
- inhibition at 0.1 µM (CYP3A4; human, concentration 0.1 μM): 3.09%
- inhibition at 0.5 µM (CYP3A4; human, concentration 0.5 μM): 3.7%
- inhibition at 5 µM (CYP3A4; human, concentration 5 μM): 24.4%
- inhibition at 25 µM (CYP3A4; human, concentration 25 μM): 49.7%
- inhibition at 50 µM (CYP3A4; human, concentration 50 μM): 55.5%
- inhibition activity against CYP, statement in words (CYP3A4; summary of Table 5): no inhibition activity
- inhibition at 10 µM (CYP2D6; concentration 10 μM): 6.12%
- IC50 (CYP2D6; [3]): > 50 µM
- inhibition at 0.1 µM (CYP2D6; human, concentration 0.1 μM): -3.15%
- inhibition at 0.5 µM (CYP2D6; human, concentration 0.5 μM): -4.76%
- inhibition at 5 µM (CYP2D6; human, concentration 5 μM): -2.56%
- inhibition at 25 µM (CYP2D6; human, concentration 25 μM): 13.6%
- inhibition at 50 µM (CYP2D6; human, concentration 50 μM): 13.4%
- inhibition activity against CYP, statement in words (CYP2D6; summary of Table 5): no inhibition activity
- IC50 (CYP1A2; [3]): > 50 µM
- inhibition at 0.1 µM (CYP1A2; human, concentration 0.1 μM): 5.36%
- inhibition at 0.5 µM (CYP1A2; human, concentration 0.5 μM): 4.67%
- inhibition at 5 µM (CYP1A2; human, concentration 5 μM): -1.9%
- inhibition at 10 µM (CYP1A2; human, concentration 10 μM): -3.46%
- inhibition at 25 µM (CYP1A2; human, concentration 25 μM): -3.11%
- inhibition at 50 µM (CYP1A2; human, concentration 50 μM): 2.08%
- inhibition activity against CYP, statement in words (CYP1A2; summary of Table 5): no inhibition activity
- inhibition at 10 µM (CYP2C19; concentration 10 μM): 37.3%
- IC50 (CYP2C19; [3]): 16.6 µM
- inhibition at 0.1 µM (CYP2C19; human, concentration 0.1 μM): 2.72%
- inhibition at 0.5 µM (CYP2C19; human, concentration 0.5 μM): 3.23%
- inhibition at 5 µM (CYP2C19; human, concentration 5 μM): 30%
- inhibition at 25 µM (CYP2C19; human, concentration 25 μM): 66.1%
- inhibition at 50 µM (CYP2C19; human, concentration 50 μM): 68%
- inhibition activity against CYP, statement in words (CYP2C19; summary of Table 5): no inhibition activity
- F* ([1]; PO 10 mg/kg): 23.44%
- AUC(0-inf) ([1]; mouse, in vivo, IV 5 mg/kg): 350 ng·h/mL
- AUC(0-t) ([1]; mouse, in vivo, IV 5 mg/kg): 322 ng·h/mL
- Cmax ([1]; mouse, in vivo, IV 5 mg/kg): 111 ng/mL
- Tmax ([1]; mouse, in vivo, IV 5 mg/kg): 0.083 h
- clearance ([1]; mouse, in vivo, IV 5 mg/kg): 238 mL/min/kg
- half-life ([1]; mouse, in vivo, IV 5 mg/kg): 1.83 h
- MRT inf ([1]; mouse, in vivo, IV 5 mg/kg, read-out: MRT(0-∞)): 3.56 h
- Vd ([1]; mouse, in vivo, IV 5 mg/kg, read-out: Vz): 37.7 L/kg
- AUC(0-t) ([1]; mouse, in vivo, PO 10 mg/kg): 151 ng·h/mL
- Cmax ([1]; mouse, in vivo, PO 10 mg/kg): 27.1 ng/mL
- Tmax ([1]; mouse, in vivo, PO 10 mg/kg): 6 h
- GI50 [2]: < 1 µM
- inhibition at 1 µM (TIE2): ≥ 50%
- inhibition at 1 µM (c-Src): ≥ 50%
- inhibition at 1 µM (MEKK3): ≥ 50%
Compound: CCN1CCN(c2ccc(Nc3cc(-n4c(Nc5c(Cl)c(OC)cc(OC)c5Cl)nc5ccccc54)ncn3)cc2)CC1 [Example 1, N-(2,6-dichloro-3,5-dimethoxyphenyl)-1-(6-((4-(4-ethylpiperazin-1-yl)phenyl)amino)pyrimidin-4-yl)-1H-benz[d]imidazol-2-amine]
